Experiments:
[1] = target: Adenosine receptor A2a (Rattus norvegicus) (UniProt P30543); test: Displacement of [3H]CGS21680 from adenosine A2A receptor in rat brain striatal membrane at 1 uM after 60 mins by liquid scintillation counting analysis; format: cell membranes
Adenosine receptor A2a [2] = target: Adenosine receptor A2a (Rattus norvegicus, UniProt P30543); test: Displacement of [3H]CGS21680 from adenosine A2A receptor in rat brain striatal membrane after 60 mins by liquid scintillation counting analysis; format: cell membranes
[3] = target: T1, Adenosine receptor A3 (Homo sapiens) (UniProt P0DMS8); test: Displacement of [3H]NECA from human recombinant adenosine A3 receptor expressed in CHO cells at 1 uM after 180 mins by liquid scintillation counting analysis; format: cell-based
T1 sequence (whole entry): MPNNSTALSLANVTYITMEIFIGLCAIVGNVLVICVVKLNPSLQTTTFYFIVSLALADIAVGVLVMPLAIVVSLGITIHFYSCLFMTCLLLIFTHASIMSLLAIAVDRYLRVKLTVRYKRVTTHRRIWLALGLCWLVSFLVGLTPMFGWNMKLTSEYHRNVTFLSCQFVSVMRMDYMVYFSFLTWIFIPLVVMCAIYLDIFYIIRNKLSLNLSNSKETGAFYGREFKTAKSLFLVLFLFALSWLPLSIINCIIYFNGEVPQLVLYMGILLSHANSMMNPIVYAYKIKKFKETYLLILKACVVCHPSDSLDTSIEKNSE

Adenosine receptor A3 [4] = target: T2, Adenosine receptor A3 (Homo sapiens, UniProt P0DMS8); test: Displacement of [3H]NECA from human recombinant adenosine A3 receptor expressed in CHO cells after 180 mins by liquid scintillation counting analysis; format: cell-based
T2 sequence (P0DMS8 whole entry): T1 sequence (whole entry)

[5] = target: T3, Adenosine receptor A1 (Rattus norvegicus) (UniProt P25099); test: Displacement of [3H]CCPA from adenosine A1 receptor in rat brain cortical membrane at 1 uM after 90 mins by liquid scintillation counting analysis; format: cell membranes
T3 sequence (whole entry): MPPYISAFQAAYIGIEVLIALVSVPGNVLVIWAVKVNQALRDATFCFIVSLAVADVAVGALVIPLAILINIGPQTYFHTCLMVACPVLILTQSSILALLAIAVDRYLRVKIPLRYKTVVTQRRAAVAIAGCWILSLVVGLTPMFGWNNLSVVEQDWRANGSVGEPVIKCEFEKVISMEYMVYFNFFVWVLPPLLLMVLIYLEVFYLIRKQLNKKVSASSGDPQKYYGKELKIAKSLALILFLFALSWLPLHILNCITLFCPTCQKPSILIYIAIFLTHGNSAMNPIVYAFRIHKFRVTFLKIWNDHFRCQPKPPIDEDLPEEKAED

Adenosine receptor A1 [6] = target: T4, Adenosine receptor A1 (Rattus norvegicus, UniProt P25099); test: Displacement of [3H]CCPA from adenosine A1 receptor in rat brain cortical membrane after 90 mins by liquid scintillation counting analysis; format: cell membranes
T4 sequence (P25099 whole entry): T3 sequence (whole entry)

Adenosine receptor A2a [7] = target: Adenosine receptor A2a (Homo sapiens, UniProt P29274); test: Agonist activity at human recombinant adenosine A2A receptor expressed in CHO cells assessed as [3H]cAMP accumulation after 15 mins by liquid scintillation counting; format: functional, cell-based
Adenosine receptor A3 [8] = target: T2, Adenosine receptor A3; test: Displacement of [3H]NECA from human recombinant adenosine A3 receptor
[9] = target: T5, Adenosine receptor A2b (Homo sapiens) (UniProt P29275); test: Displacement of [3H]PSB-603 from human recombinant adenosine A2B receptor expressed in CHO cells at 10 uM after 75 mins by liquid scintillation counting analysis; format: cell-based
T5 sequence (whole entry): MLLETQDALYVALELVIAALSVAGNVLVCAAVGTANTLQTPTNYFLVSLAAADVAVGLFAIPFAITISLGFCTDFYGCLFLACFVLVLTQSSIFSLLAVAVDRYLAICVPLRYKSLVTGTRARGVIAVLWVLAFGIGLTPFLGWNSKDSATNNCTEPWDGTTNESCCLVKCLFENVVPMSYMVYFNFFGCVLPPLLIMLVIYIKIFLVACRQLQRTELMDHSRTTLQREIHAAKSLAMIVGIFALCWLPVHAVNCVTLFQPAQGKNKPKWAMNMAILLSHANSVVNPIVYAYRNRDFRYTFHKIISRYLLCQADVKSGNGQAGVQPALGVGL

Adenosine receptor A1 [10] = target: T6, Adenosine receptor A1 (Homo sapiens, UniProt P30542); test: Displacement of [3H]CCPA from human recombinant adenosine A1 receptor expressed in CHO cells 90 mins by liquid scintillation counting analysis; format: cell-based
T6 sequence (P30542 whole entry): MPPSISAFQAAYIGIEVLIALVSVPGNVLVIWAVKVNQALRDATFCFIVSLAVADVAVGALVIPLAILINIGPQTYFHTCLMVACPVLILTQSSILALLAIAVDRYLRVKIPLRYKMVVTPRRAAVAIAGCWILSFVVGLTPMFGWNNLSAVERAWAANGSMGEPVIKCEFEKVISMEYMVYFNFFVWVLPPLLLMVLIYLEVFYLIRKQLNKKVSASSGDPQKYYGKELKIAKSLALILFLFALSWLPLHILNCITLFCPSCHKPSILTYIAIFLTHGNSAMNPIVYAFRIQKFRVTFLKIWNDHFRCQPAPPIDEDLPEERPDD

Adenosine receptor A1 [11] = target: T6, Adenosine receptor A1

Chain of Adenosine receptor A2a (Rattus norvegicus, UniProt P30543) (P30543 whole entry): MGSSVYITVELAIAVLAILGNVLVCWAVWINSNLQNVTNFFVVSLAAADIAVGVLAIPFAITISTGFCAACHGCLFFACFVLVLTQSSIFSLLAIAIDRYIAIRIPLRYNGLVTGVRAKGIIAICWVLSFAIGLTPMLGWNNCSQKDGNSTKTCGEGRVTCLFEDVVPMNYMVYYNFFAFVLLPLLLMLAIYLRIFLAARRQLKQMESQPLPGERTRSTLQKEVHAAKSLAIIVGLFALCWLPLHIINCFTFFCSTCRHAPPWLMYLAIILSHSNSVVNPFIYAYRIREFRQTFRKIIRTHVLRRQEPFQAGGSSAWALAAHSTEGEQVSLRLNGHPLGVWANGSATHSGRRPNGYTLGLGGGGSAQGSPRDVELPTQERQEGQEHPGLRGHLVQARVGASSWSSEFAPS
Chain of Adenosine receptor A2a (Rattus norvegicus) (P30543 whole entry): as above
Chain of Adenosine receptor A2a (Homo sapiens, UniProt P29274) (P29274 whole entry): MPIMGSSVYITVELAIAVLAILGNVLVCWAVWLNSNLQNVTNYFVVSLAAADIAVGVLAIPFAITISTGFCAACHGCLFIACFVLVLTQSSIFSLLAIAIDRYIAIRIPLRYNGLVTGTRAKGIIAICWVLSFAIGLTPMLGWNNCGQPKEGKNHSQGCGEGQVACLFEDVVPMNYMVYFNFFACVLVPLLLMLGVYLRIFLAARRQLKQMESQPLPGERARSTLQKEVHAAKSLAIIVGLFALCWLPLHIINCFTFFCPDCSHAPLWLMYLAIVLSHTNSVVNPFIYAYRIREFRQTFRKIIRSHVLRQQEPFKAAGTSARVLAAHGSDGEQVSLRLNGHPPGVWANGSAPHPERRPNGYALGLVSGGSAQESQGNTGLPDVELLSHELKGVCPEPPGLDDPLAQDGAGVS

inhibition [1] [%]	Ki (Adenosine receptor A2a [2]) [nM]	SMILES	other results
33	> 1000	Nc1nc(N/N=C/[C@@H](O)[C@@H](O)[C@@H](O)CO)nc2c1ncn2[C@@H]1O[C@H](CO)[C@@H](O)[C@H]1O	–
31	> 1000	CN(/N=C/[C@@H](O)[C@H](O)[C@@H](O)[C@@H](O)CO)c1nc(N)c2ncn([C@@H]3O[C@H](CO)[C@@H](O)[C@H]3O)c2n1	–
16	> 1000	CN(NC(=S)Nc1ccccc1)c1nc(N)c2ncn([C@@H]3O[C@H](CO)[C@@H](O)[C@H]3O)c2n1	inhibition [3]: 36%; Ki (Adenosine receptor A3 [4]): > 1000 nM; inhibition [5]: 1%; Ki (Adenosine receptor A1 [6]): > 1000 nM
–	16.1	Nc1nc(N/N=C/c2ccc(Cl)cc2)nc2c1ncn2[C@@H]1O[C@H](CO)[C@@H](O)[C@H]1O	–
25	> 1000	CN(/N=C/[C@H](O)[C@@H](O)[C@@H](O)[C@H](O)CO)c1nc(N)c2ncn([C@@H]3O[C@H](CO)[C@@H](O)[C@H]3O)c2n1	–
11	> 1000	CN(NC(=O)Nc1ccccc1)c1nc(N)c2ncn([C@@H]3O[C@H](CO)[C@@H](O)[C@H]3O)c2n1	–
–	329	Nc1nc(N/N=C/[C@@H](O)[C@H](O)[C@H](O)[C@@H](O)CO)nc2c1ncn2[C@@H]1O[C@H](CO)[C@@H](O)[C@H]1O	EC50 (Adenosine receptor A2a [7]): 1440 nM
–	25.5	Nc1nc(N/N=C/C2CCCCC2)nc2c1ncn2[C@@H]1O[C@H](CO)[C@@H](O)[C@H]1O [BINODENOSON]	Ki (Adenosine receptor A3 [8]): 903 nM; Ki (Adenosine receptor A3 [4]): 52.6 nM; inhibition [9]: 17%; Ki (Adenosine receptor A1 [10]): 169 nM; Ki (Adenosine receptor A1 [6]): 70.8 nM; Ki (Adenosine receptor A1 [11]): 48000 nM
7	> 1000	CN(/N=C/[C@@H](O)[C@@H](O)[C@@H](O)CO)c1nc(N)c2ncn([C@@H]3O[C@H](CO)[C@@H](O)[C@H]3O)c2n1	–
–	91.7	Nc1nc(N/N=C/c2ccc(Cl)cc2O)nc2c1ncn2[C@@H]1O[C@H](CO)[C@@H](O)[C@H]1O	–
42	> 1000	Nc1nc(N/N=C/[C@@H](O)[C@H](O)[C@@H](O)[C@@H](O)CO)nc2c1ncn2[C@@H]1O[C@H](CO)[C@@H](O)[C@H]1O	–
34	> 1000	Nc1nc(N/N=C(\CO)[C@H](O)[C@@H](O)[C@@H](O)CO)nc2c1ncn2[C@@H]1O[C@H](CO)[C@@H](O)[C@H]1O	–
25	> 1000	CN(/N=C(\CO)[C@H](O)[C@@H](O)[C@@H](O)CO)c1nc(N)c2ncn([C@@H]3O[C@H](CO)[C@@H](O)[C@H]3O)c2n1	–
33	> 1000	Nc1nc(N/N=C/[C@H](O)[C@H](O)[C@@H](O)[C@@H](O)CO)nc2c1ncn2[C@@H]1O[C@H](CO)[C@@H](O)[C@H]1O	–
–	12	COc1ccc(/C=N/Nc2nc(N)c3ncn([C@@H]4O[C@H](CO)[C@@H](O)[C@H]4O)c3n2)cc1	Ki (Adenosine receptor A1 [10]): 723 nM
–	24.4	Nc1nc(N/N=C/c2ccc(Cl)c(Cl)c2)nc2c1ncn2[C@@H]1O[C@H](CO)[C@@H](O)[C@H]1O	EC50 (Adenosine receptor A2a [7]): 1660 nM
2	> 1000	CN(/N=C/[C@H](O)[C@H](O)[C@@H](O)[C@@H](O)CO)c1nc(N)c2ncn([C@@H]3O[C@H](CO)[C@@H](O)[C@H]3O)c2n1	–

— ChEMBL document CHEMBL2321867, “Synthesis and structure-activity relationships of 2-hydrazinyladenosine derivatives as A(2A) adenosine receptor ligands” (Bioorg Med Chem, 2013)
